From US20100305124A1, “Acylated Aminopyridine and Aminopyridazine Insecticides” (BAYER CROPSCIENCE AG, priority 2009, published 2010)

What follows are compounds tested on green peach aphid (Myzus persicae) (assay: Myzus test (MYZUPE), sprayed aubergine plants). Conditions: application rate of 100 ppm, spray on aubergine plants, read-out: effect in % (aphids killed).
Format: in vivo
Protocol: Solvent: 3 parts by weight of dimethylformamide Emulsifier: 1 part by weight of polyoxyethylenealkyl phenyl ether
An appropriate preparation of active ingredient is prepared by mixing 1 part by weight of active ingredient with the stated amount of solvent and emulsifier and diluting the concentrate with water to the desired concentration.
Aubergine plants (Solanum melongena) infested by all stages of the green peach aphid (Myzus persicae) are sprayed with a preparation of active ingredient at the desired concentration.
After the desired time, the effect in % is determined; here, 100% means that all of the aphids have been killed. Conversely, 0% means that no aphids have been killed.

| SMILES | pest or weed control at 100 ppm [%] |
| --- | --- |
| Cc1cncc(C(=O)Nc2cccnc2)c1 [I-10] | ≥ 80 |
| CN(C(=O)c1ccc(Oc2ccc(OC(F)(F)F)cc2)nc1)c1cccnc1 [I-95] | ≥ 80 |
| CCSc1ccc(C(=O)N(CC)c2cccnc2)cc1 [I-65] | ≥ 80 |

Same assay, conditions: application rate of 500 ppm, spray on aubergine plants, read-out: effect in % (aphids killed)

| SMILES | pest or weed control at 500 ppm [%] |
| --- | --- |
| CSc1ccc(C(=O)N(C)c2cccnc2)cc1F [I-66] | ≥ 80 |
| CCN(C(=O)c1ccc(Oc2ccc(Cl)cc2)nc1)c1cccnc1 [I-161] | ≥ 80 |
| COc1ccc(Oc2ccc(Oc3ccc(C(=O)N(C)c4cccnc4)cn3)cc2)cc1 [I-131] | ≥ 80 |
| CN(C(=O)c1ccc(Oc2ccc(Cl)c(Cl)c2)nc1)c1cccnc1 [I-115] | ≥ 80 |
| CN(CCC#N)C(=O)c1ccc(C(=O)Nc2cccnc2)cc1 [I-244] | ≥ 80 |
| CCN(C)C(=O)c1cc(C(=O)N(C)c2cccnc2)ccc1OC [I-77] | ≥ 80 |
| CCN(C(=O)c1ccc(Oc2nc(C)cc(C)n2)cc1)c1cccnc1 [I-183] | ≥ 80 |
| COc1nc(OC)nc(Sc2ccc(C(=O)N(C)c3cccnc3)cn2)n1 [I-200] | ≥ 80 |
| CN(C(=O)c1ccc(Cn2nc(C(F)(F)F)nc2C(F)(F)F)cc1)c1cccnc1 [I-26] | ≥ 80 |
| CN(C(=O)c1ccc(Sc2ccc(C(F)(F)F)cn2)nc1)c1cccnc1 [I-119] | ≥ 80 |
| CC(C(=O)c1ccc(Oc2cccc3ncccc23)nc1)c1cccnc1 (centres unmarked) [I-142] | ≥ 80 |
| CN(C(=O)c1ccc(Oc2ccccc2Cl)nc1)c1cccnc1 [I-98] | ≥ 80 |
| Cc1cc(C)nc(SCc2ccc(C(=O)N(C)c3cccnc3)cc2)n1 [I-70] | ≥ 80 |
| CSc1ccc(C(=O)Nc2cccnc2)cc1 [I-36] | ≥ 80 |
| CN(C(=O)c1ccc(Oc2cnc(C(F)(F)F)nc2)nc1)c1cccnc1 [I-185] | ≥ 80 |
| CCN(C(=O)c1ccc(Oc2ccc([N+](=O)[O-])cc2)nc1)c1cccnc1 [I-163] | ≥ 80 |
| CCN(C(=O)c1cccc(OCc2nc(OC)cc(OC)n2)c1)c1cccnc1 [I-208] | ≥ 80 |
| COc1ccc(Oc2ccc(C(=O)Nc3cccnc3)cn2)cc1 [I-81] | ≥ 80 |
| CSCc1ccc(C(=O)Nc2cccnc2)cc1 [I-32] | ≥ 80 |
| O=C(Nc1cccnc1)c1ccc(NCCN2CCOCC2)nc1 [I-223] | ≥ 80 |
| CN(C(=O)c1ccc(Oc2cccc(Cl)c2)nc1)c1cccnc1 [I-99] | ≥ 80 |

| SMILES | pest or weed control at 500 ppm [%] |
| --- | --- |
| COc1ccc(Sc2ccc(C(=O)N(C)c3cccnc3)cn2)cc1 [I-106] | ≥ 80 |
| COc1cc(OC)nc(COc2cccc(C(=O)N(C)c3cccnc3)c2)n1 [I-207] | ≥ 80 |
| Cc1ccc(Oc2ccc(C(=O)N(C)c3cccnc3)cn2)cc1 [I-102] | ≥ 80 |
| CSCc1cccc(C(=O)Nc2cccnc2)c1 [I-16] | ≥ 80 |
| O=C(Nc1cccnc1)c1ccc(Sc2ncccn2)nc1 [I-194] | ≥ 80 |
| CCSc1ccc(C(=O)N(C)c2cccnc2)cc1 [I-56] | ≥ 80 |
| Cc1cc(C)nc(Sc2ccc(C(=O)Nc3cccnc3)cc2)n1 [I-179] | ≥ 80 |
| CN(C(=O)c1ccc(Cn2cnc(C(F)(F)F)n2)cc1)c1cccnc1 [I-25] | ≥ 80 |
| CCN(C(=O)c1ccc(SC)c(F)c1)c1cccnc1 [I-67] | ≥ 80 |
| COc1ccc(C(=O)Nc2cccnc2)cc1C(=O)NC(C)C [I-78] | ≥ 80 |
| CC(C)S(=O)(=O)c1ccc(Oc2ccc(C(=O)N(C)c3cccnc3)cn2)cc1 [I-130] | ≥ 80 |
| CCN(C(=O)c1ccc(Sc2ncccn2)nc1)c1cccnc1 [I-196] | ≥ 80 |
| CN(C(=O)c1ccc(CSC(F)F)cc1)c1cccnc1 [I-62] | ≥ 80 |
| Cc1nc(Sc2ncc(C(=O)N(C)c3cccnc3)cc2Cl)nc(C)c1C [I-167] | ≥ 80 |
| CN(C(=O)c1ccc(Cn2ccc(C(F)(F)F)n2)cc1)c1cccnc1 [I-27, N-Methyl-N-(pyridin-3-yl)-4-{[3-(trifluoromethyl)-1H-pyrazol-1-yl]methyl}benzenecarboxamide] | ≥ 80 |
| Cc1nc(Sc2ccc(C(=O)Nc3cccnc3)cn2)nc(C)c1C [I-218] | ≥ 80 |
| CN(C(=O)c1ccc([N+](=O)[O-])cc1)c1cccnc1 [I-21] | ≥ 80 |
| CCN(C(=O)c1ccc(Oc2cccc(C(F)(F)F)c2)nc1)c1cccnc1 [I-221] | ≥ 80 |
| CCN(C(=O)c1ccc(Oc2ccc(S(C)(=O)=O)cc2)nc1)c1cccnc1 [I-154] | ≥ 80 |
| CCN(C(=O)c1ccc(Oc2ccc(C#N)cc2)nc1)c1cccnc1 [I-165] | ≥ 80 |
| CN(C(=O)c1cnc(Oc2ccc(S(C)(=O)=O)cc2)c(Cl)c1)c1cccnc1 [I-148] | ≥ 80 |

| SMILES | pest or weed control at 500 ppm [%] |
| --- | --- |
| CN(C(=O)c1ccc(Oc2cccc(C#N)c2)nc1)c1cccnc1 [I-112] | ≥ 80 |
| CN(C(=O)c1ccc(Oc2ccc(C(F)(F)F)cc2)nc1)c1cccnc1 [I-117] | ≥ 80 |
| COc1ccc(C(=O)N(C)c2cccnc2)cc1C(=O)NC(C)C [I-79] | ≥ 80 |
| Cc1ccnc(Sc2ccc(C(=O)N(C)c3cccnc3)cn2)n1 [I-137] | ≥ 80 |
| CN(C(=O)c1cccc(Cn2nc(C(F)(F)F)cc2C(F)(F)F)c1)c1cccnc1 [I-13] | ≥ 80 |
| C#CCN(C(=O)c1ccc(Sc2nc(C)cc(C)n2)nc1)c1cccnc1 [I-225] | ≥ 80 |
| Cc1ccc(C(=O)Nc2cccnc2)cn1 [I-38] | ≥ 80 |
| CCN(C(=O)c1ccc(Sc2nc(OC)cc(OC)n2)cc1)c1cccnc1 [I-178] | ≥ 80 |
| Cc1ccc(C(=O)N(C)c2cccnc2)cn1 [I-43] | ≥ 80 |
| Cc1cc(C)nc(Sc2ccc(C(=O)Nc3cccnc3)cn2)n1 [I-159] | ≥ 80 |
| CN(C(=O)c1cccc(COc2ccc(C(F)(F)F)cc2)c1)c1cccnc1 [I-14] | ≥ 80 |
| Cc1ccc(Sc2ccc(C(=O)N(C)c3cccnc3)cn2)cc1 [I-105] | ≥ 80 |
| CCN(C(=O)c1ccc(Cl)nc1)c1cccnc1 [I-191] | ≥ 80 |
| CCN(C(=O)c1ccc(Oc2ccc(OC(F)(F)F)cc2)nc1)c1cccnc1 [I-132] | ≥ 80 |
| O=C(Nc1cccnc1)c1ccc(Oc2ccc(C(F)(F)F)cc2)nc1 [I-109] | ≥ 80 |
| Cc1cc(C)nc(Oc2ccc(C(=O)N(C)c3cccnc3)cn2)n1 [I-144] | ≥ 80 |
| O=C(Nc1cccnc1)c1ccc(C(=O)N2CCCC2)cc1 [I-42] | ≥ 80 |
| CC(C)NC(=O)c1cccc(C(=O)N(C)c2cccnc2)c1 [I-75] | ≥ 80 |
| CCN(C(=O)c1ccc(Sc2nc(C)cc(C)n2)nc1)c1cccnc1 [I-192] | ≥ 80 |
| CN(C(=O)c1cccc(Cn2cnc(C(F)(F)F)n2)c1)c1cccnc1 [I-12] | ≥ 80 |
| CN(C(=O)c1cnc(Oc2ccc(C#N)cc2)c(Cl)c1)c1cccnc1 [I-149] | ≥ 80 |

| SMILES | pest or weed control at 500 ppm [%] |
| --- | --- |
| CN(C(=O)c1ccc(Sc2ccc(C(F)(F)F)cc2)nc1)c1cccnc1 [I-118] | ≥ 80 |
| Cc1cc(C)nc(Oc2ccc(C(=O)N(C)c3cccnc3)cc2)n1 [I-182] | ≥ 80 |
| CC(C)O/N=C/c1ccc(C(=O)N(C)c2cccnc2)cc1 [I-234] | ≥ 80 |
| CCN(C(=O)c1ccc(Sc2nc(C)cc(C)n2)cc1)c1cccnc1 [I-180] | ≥ 80 |
| COC(=O)c1cncc(Oc2ccc(C(=O)Nc3cccnc3)cn2)c1 [I-89] | ≥ 80 |
| CCN(C(=O)c1ccc(Sc2nc(OC)nc(OC)n2)cc1)c1cccnc1 [I-190] | ≥ 80 |
| C#CCN(C(=O)c1ccc(Oc2ccc(OC(F)(F)F)cc2)nc1)c1cccnc1 [I-135] | ≥ 80 |
| CN(C(=O)c1ccc(NC(=O)C(F)(F)F)cc1)c1cccnc1 [I-52] | ≥ 80 |
| CN(C(=O)c1ccc(Oc2ccc(-n3cncn3)cc2)nc1)c1cccnc1 [I-128] | ≥ 80 |
| CCSc1ccc(C(=O)Nc2cccnc2)cc1 [I-55] | ≥ 80 |
| CCCSc1ccc(C(=O)Nc2cccnc2)cc1 [I-68] | ≥ 80 |
| Cc1ccc(Oc2ccc(C(=O)N(C)c3cccnc3)cn2)cn1 [I-80] | ≥ 80 |
| CCN(C)C(=O)c1cccc(C(=O)Nc2cccnc2)c1 [I-71] | ≥ 80 |
| COc1cc(OC)nc(Oc2ccc(C(=O)N(C)c3cccnc3)cn2)n1 [I-145] | ≥ 80 |
| CN(C(=O)c1ccc(Cn2cncn2)cc1)c1cccnc1 [I-22] | ≥ 80 |
| COc1cc(OC)nc(Sc2ccc(C(=O)Nc3cccnc3)cn2)n1 [I-173] | ≥ 80 |
| CCN(C(=O)c1ccc(Sc2nc(OC)cc(OC)n2)nc1)c1cccnc1 [I-175] | ≥ 80 |
| CN(C(=O)c1ccc(Oc2ccc(Cl)cc2)nc1)c1cccnc1 [I-91] | ≥ 80 |
| CN(C(=O)c1ccc(Cn2cccn2)cc1)c1cccnc1 [I-23] | ≥ 80 |
| CN(C(=O)c1ccc(Cn2nc(C(F)(F)F)cc2C(F)(F)F)nc1)c1cccnc1 [I-49] | ≥ 80 |

Same assay, conditions: read-out: effect in % (aphids killed)

| SMILES | pest or weed control at 500 ppm [%] |
| --- | --- |
| CN(C(=O)c1ccc(C(F)(F)C(F)(F)C(F)(F)F)nc1)c1cccnc1 [I-48] | ≥ 80 |
| CN(C(=O)c1ccc(C(F)(F)C(F)(F)C(F)(F)F)cc1)c1cccnc1 [I-47] | ≥ 80 |
| O=C(Nc1cccnc1)c1ccc(C(F)(F)C(F)(F)C(F)(F)F)cc1 [I-29] | ≥ 80 |
